We go through two substances from patent publication US20130203097A1 (priority 2010, published 2013).

*: point of attachment. pNA = O=[N+]([O-])c1ccc(N*)cc1; MeOSuc = COC(=O)CCC(=O)*

Data set [1] has as its system other species of Legionella. To be noted: cited from earlier work.
In data set [2] the test system is strains of Legionella pneumophila. As to conditions: out of 283 strains of Legionella pneumophila tested; cited from earlier work.
The test system of the next data set is Pseudomonas aeruginosa. As to conditions: cited from earlier work.
Data set [3] relates to CC(=O)N[C@@H](CO)C(=O)N[C@@H](CCCCN)C(=O)NCC(=O)N[C@@H](Cc1ccc2ccc3cccc4ccc1c2c34)C(=O)N[C@@H](Cc1ccc(O)c([N+](=O)[O-])c1)C(=O)NCC(=O)NCC(=O)N[C@@H](CCCCN)C(N)=O. In words: purified protein, by the assay type. As to conditions: pH 7.0; 37.0 °C.

As to “MeOSuc-Arg-Pro-Tyr-pNA [Compound S-2586]”, in data set [1], the “species that responded positively” value is 2. The “strains that degraded the substrate” value in data set [2] is given as 282. Further, the “Pseudomonas aeruginosa that responded positively” value in the data set with Pseudomonas aeruginosa is given as 22.
For Msp (Legionella pneumophila), in data set [3], the Km stood at 6.8 ± 0.6 µM and the kcat is 23.9 ± 0.7 s⁻¹.
